From ChEMBL document CHEMBL1149282, “A systematic approach to the optimization of substrate-based inhibitors of the hepatitis C virus NS3 protease: discovery of potent and specific tripeptide inhibitors” (J Med Chem, 2004)
Square brackets hold non-standard residues; d marks the D form. Peptide text beside a SMILES is read from it. * marks the point of attachment. Hyp(2-Ph-quinolin-4-yl) = O=C(O)[C@@H]1C[C@@H](Oc2cc(-c3ccccc3)nc3ccccc23)CN1; Hyp(quinolin-4-yl) = O=C(O)[C@@H]1C[C@@H](Oc2ccnc3ccccc23)CN1; Ac3c(1R,2S-2-vinyl) = C=C[C@@H]1C[C@]1(N)C(=O)O; Hyp = O=C(O)[C@@H]1C[C@@H](O)CN1; Chg = N[C@H](C(=O)O)C1CCCCC1; X1 = c1ccc2cc(C*)ccc2c1

Key:
[1] = Inhibition of HCV NS3 protease; design: species or system Hepacivirus hominis
[2] = test system: Hepatitis C virus; experiment: Antiviral activity in Huh7 cells containing sub-genomic HCV subtype 1b replicon by RT-PCR; format: functional, organism-based, Hepacivirus hominis; settings: genotype 1b, Huh-7
[3] = molecular target: Cathepsin B (Homo sapiens, UniProt P07858); experiment: Inhibition of human cathepsin B
[4] = molecular target: T1, Neutrophil elastase (Homo sapiens, UniProt P08246); experiment: Inhibition of human leucocyte elastase
T1 sequence (P08246 whole entry): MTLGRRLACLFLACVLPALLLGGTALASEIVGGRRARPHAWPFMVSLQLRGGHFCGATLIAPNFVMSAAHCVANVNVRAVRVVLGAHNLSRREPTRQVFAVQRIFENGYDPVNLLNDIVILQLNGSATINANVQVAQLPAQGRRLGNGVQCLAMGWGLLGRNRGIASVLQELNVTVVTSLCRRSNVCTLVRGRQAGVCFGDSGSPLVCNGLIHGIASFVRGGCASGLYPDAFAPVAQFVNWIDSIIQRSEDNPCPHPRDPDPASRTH

For C=C[C@@H]1C[C@]1(NC(=O)[C@@H]1C[C@@H](Oc2cc(-c3ccccc3)nc3cc(OC(C)C)ccc23)CN1C(=O)[C@@H](NC(=O)OC(C)(C)C)C(C)(C)C)C(=O)O, the IC50 [1] was 228 nM.
With C=C[C@@H]1C[C@]1(NC(=O)[C@@H]1C[C@@H](Oc2cc(-c3ccccc3)nc3cc(C(=O)O)ccc23)CN1C(=O)[C@@H](NC(=O)OC(C)(C)C)C(C)(C)C)C(=O)O the IC50 [1] was greater than 1000 nM.
For C=C[C@@H]1C[C@]1(NC(=O)[C@@H]1C[C@@H](Oc2ccnc3cc(OC)ccc23)CN1C(=O)[C@@H](NC(=O)[C@@H](NC(C)=O)C1CCCCC1)C(C)C)C(=O)O, the IC50 [1] was 10 nM.
For C=C[C@@H]1C[C@]1(NC(=O)[C@@H]1C[C@@H](Oc2cc(-c3ccccc3)nc3cc(OC)ccc23)CN1C(=O)[C@@H](NC(=O)CC1CCCCC1)C(C)(C)C)C(=O)O, the IC50 [1] was 37 nM.
C=C[C@@H]1C[C@]1(NC(=O)[C@@H]1C[C@@H](Oc2cc(-c3ccccc3)nc3cc(OC)ccc23)CN1C(=O)[C@@H](NC(=O)OC1CCCC1)C(C)(C)C)C(=O)O showed an IC50 [1] of 14 nM.
In the case of C=C[C@@H]1C[C@]1(NC(=O)[C@@H]1C[C@@H](Oc2cc(-c3ccccc3)nc3c(OC)cccc23)CN1C(=O)[C@@H](NC(=O)[C@@H](NC(C)=O)C1CCCCC1)C(C)C)C(=O)O, the IC50 [1] is reported as 5 nM.
For C=C[C@@H]1C[C@]1(NC(=O)[C@@H]1C[C@@H](OCc2ccc3ccccc3c2)CN1C(=O)[C@@H](NC(=O)[C@@H](NC(C)=O)C1CCCCC1)C(C)C)C(=O)O (Ac-[Chg]V[Hyp](X1)[Ac3c(1R,2S-2-vinyl)]-OH), the IC50 [1] was 600 nM.
C=C[C@@H]1C[C@]1(NC(=O)[C@@H]1C[C@@H](Oc2cc(-c3ccccc3)nc3cc(OC)ccc23)CN1C(=O)[C@@H](NC(=O)OC1CCCCC1)C(C)(C)C)C(=O)O showed an IC50 [1] of 30 nM and an EC50 [2] of 460 nM.
With C=C[C@@H]1C[C@]1(NC(=O)[C@@H]1C[C@@H](Oc2cc(-c3ccccc3)nc3ccc(OC)cc23)CN1C(=O)[C@@H](NC(=O)[C@@H](NC(C)=O)C1CCCCC1)C(C)C)C(=O)O the IC50 [1] was 41 nM.
C=C[C@@H]1C[C@]1(NC(=O)[C@@H]1C[C@@H](Oc2cc(-c3ccccc3)nc3cc(OC)ccc23)CN1C(=O)[C@@H](NC(=O)[C@@H](N)C1CCCCC1)C(C)(C)C)C(=O)O showed an IC50 [1] of 18 nM.
C=C[C@@H]1C[C@]1(NC(=O)[C@@H]1C[C@@H](Oc2cc(-c3ccccc3)nc3ccccc23)CN1C(=O)[C@@H](NC(=O)[C@@H](NC(C)=O)C1CCCCC1)C(C)C)C(=O)O (Ac-[Chg]V[Hyp(2-Ph-quinolin-4-yl)][Ac3c(1R,2S-2-vinyl)]-OH) gave an IC50 [1] of 13 nM, an IC50 [3] greater than 30000 nM and an IC50 [4] greater than 30000 nM.
C=C[C@@H]1C[C@]1(NC(=O)[C@@H]1C[C@@H](Oc2cc(-c3ccccc3)nc3cc(OC)ccc23)CN1C(=O)[C@@H](NC(=O)N(C)C(C)(C)C)C(C)(C)C)C(=O)O gave an IC50 [1] of 205 nM.
C=C[C@@H]1C[C@]1(NC(=O)[C@@H]1C[C@@H](Oc2cc(-c3ccccc3)nc3cc(Br)ccc23)CN1C(=O)[C@@H](NC(=O)OC(C)(C)C)C(C)(C)C)C(=O)O showed an IC50 [1] of 350 nM.
Compound C=C[C@@H]1C[C@]1(NC(=O)[C@@H]1C[C@@H](Oc2cc(-c3ccccc3)nc3cc(OC)ccc23)CN1C(=O)[C@@H](NC(=O)[C@@H](NC(C)=O)C1CCCCC1)C(C)C)C(=O)O has an IC50 [1] of 2 nM.
C=C[C@@H]1C[C@]1(NC(=O)[C@@H]1C[C@@H](Oc2cc(-c3ccccc3)nc3cc(OC)ccc23)CN1C(=O)[C@@H](OC(=O)NC1CCCC1)C(C)(C)C)C(=O)O showed an IC50 [1] of 148 nM.
With C=C[C@@H]1C[C@]1(NC(=O)[C@@H]1C[C@@H](Oc2cc(-c3ccccc3)nc3ccccc23)CN1C(=O)[C@@H](NC(=O)OC(C)(C)C)C(C)(C)C)C(=O)O the IC50 [1] was 150 nM.
In the case of C=C[C@@H]1C[C@]1(NC(=O)[C@@H]1C[C@@H](Oc2cc(-c3ccccc3)nc3cc(OC)ccc23)CN1C(=O)[C@@H](NC(=O)NC(C)(C)C)C(C)(C)C)C(=O)O, the IC50 [1] is reported as 8 nM and the EC50 [2] is reported as 1220 nM.
C=C[C@@H]1C[C@]1(NC(=O)[C@@H]1C[C@@H](Oc2cc(-c3ccccc3)nc3cc(C(F)(F)F)ccc23)CN1C(=O)[C@@H](NC(=O)OC(C)(C)C)C(C)(C)C)C(=O)O showed an IC50 [1] of 828 nM.
C=C[C@@H]1C[C@]1(NC(=O)[C@@H]1C[C@@H](Oc2cc(-c3ccccc3)nc3c(OC)c(OC)ccc23)CN1C(=O)[C@@H](NC(=O)[C@@H](NC(C)=O)C1CCCCC1)C(C)C)C(=O)O gave an IC50 [1] of 13 nM.
With C=C[C@@H]1C[C@]1(NC(=O)[C@@H]1C[C@@H](Oc2cc(-c3ccccc3)nc3cc(F)ccc23)CN1C(=O)[C@@H](NC(=O)OC(C)(C)C)C(C)(C)C)C(=O)O the IC50 [1] was 282 nM.
For C=C[C@@H]1C[C@]1(NC(=O)[C@@H]1C[C@@H](Oc2cc(-c3ccccc3)nc3cc(OC)ccc23)CN1C(=O)[C@@H](NC(=O)OC(C)(C)C)C(C)(C)C)C(=O)O, the IC50 [1] was 29 nM, the EC50 [2] was 660 nM and the IC50 [4] was greater than 75000 nM.
In the case of C=C[C@@H]1C[C@]1(NC(=O)[C@@H]1C[C@@H](Oc2cc(-c3ccccc3)nc3cc(OC)ccc23)CN1C(=O)[C@@H](NC(=O)[C@@H](C)C1CCCCC1)C(C)(C)C)C(=O)O, the IC50 [1] is reported as 37 nM.
Work on C=C[C@@H]1C[C@]1(NC(=O)[C@@H]1C[C@@H](Oc2cc(-c3ccccc3)nc3cc(OC)ccc23)CN1C(=O)[C@@H](NC(=O)NC1CCCC1)C(C)(C)C)C(=O)O yielded an IC50 [1] of 5 nM and an EC50 [2] of 910 nM.
C=C[C@@H]1C[C@]1(NC(=O)[C@@H]1C[C@@H](Oc2cc(-c3ccccc3)nc3cc(OC(F)(F)F)ccc23)CN1C(=O)[C@@H](NC(=O)OC(C)(C)C)C(C)(C)C)C(=O)O gave an IC50 [1] of 790 nM.
Compound C=C[C@@H]1C[C@]1(NC(=O)[C@@H]1C[C@@H](Oc2cc(-c3ccccc3)nc3cc(OC)ccc23)CN1C(=O)[C@@H](NC(=O)OC1CCC1)C(C)(C)C)C(=O)O has an IC50 [1] of 24 nM and an EC50 [2] of 960 nM.
For C=C[C@@H]1C[C@]1(NC(=O)[C@@H]1C[C@@H](Oc2cc(-c3ccccc3)nc3cc(OC)ccc23)CN1C(=O)[C@@H](NC(=O)NC1CCCCC1)C(C)(C)C)C(=O)O, the IC50 [1] was 9 nM and the EC50 [2] was 2900 nM.
C=C[C@@H]1C[C@]1(NC(=O)[C@@H]1C[C@@H](Oc2ccnc3ccccc23)CN1C(=O)[C@@H](NC(=O)[C@@H](NC(C)=O)C1CCCCC1)C(C)C)C(=O)O (Ac-[Chg]V[Hyp(quinolin-4-yl)][Ac3c(1R,2S-2-vinyl)]-OH) showed an IC50 [1] of 170 nM.
C=C[C@@H]1C[C@]1(NC(=O)[C@@H]1C[C@@H](Oc2cc(-c3ccccc3)nc3cccc(OC)c23)CN1C(=O)[C@@H](NC(=O)[C@@H](NC(C)=O)C1CCCCC1)C(C)C)C(=O)O gave an IC50 [1] of 557 nM.
With C=C[C@@H]1C[C@]1(NC(=O)[C@@H]1C[C@@H](Oc2cc(-c3ccccc3)nc3cc(OC)ccc23)CN1C(=O)[C@@H](NC(=O)[C@@H](NC(C)=O)C1CCCCC1)C(C)(C)C)C(=O)O the IC50 [1] was 1 nM.
In the case of C=C[C@@H]1C[C@]1(NC(=O)[C@@H]1C[C@@H](Oc2cc(-c3ccccc3)nc3cc(SC)ccc23)CN1C(=O)[C@@H](NC(=O)OC(C)(C)C)C(C)(C)C)C(=O)O, the IC50 [1] is reported as 139 nM.
For C=C[C@@H]1C[C@]1(NC(=O)[C@@H]1C[C@@H](Oc2cc(-c3ccccc3)nc3cc(NC(C)=O)ccc23)CN1C(=O)[C@@H](NC(=O)OC(C)(C)C)C(C)(C)C)C(=O)O, the IC50 [1] was 29 nM.
